The values below are quoted from earlier work in patent publication US20090232888A1, “SUSTAINED DELIVERY OF ANTIBIOTICS” (ORIENT PHARMA, priority 2008, published 2009).

SMILES strings stand for the structures.

For data set [1] the following is noted: solution, 4° C., shelf-life based on 90% residual potency.

Take `CN[C@H](CC(C)C)C(=O)N[C@H]1C(=O)N[C@@H](CC(N)=O)C(=O)N[C@H]2C(=O)N[C@H]3C(=O)N[C@H](C(=O)N[C@H](C(=O)O)c4cc(O)cc(O)c4-c4cc3ccc4O)[C@H](O)c3ccc(c(Cl)c3)Oc3cc2cc(c3O[C@@H]2O[C@H](CO)[C@@H](O)[C@H](O)[C@H]2O[C@H]2C[C@](C)(N)[C@H](O)[C@H](C)O2)Oc2ccc(cc2Cl)[C@H]1O` [vancomycin]: the oral bioavailability result is recorded as “negligible”. For the same compound, the “time vancomycin solutions were stable (shelf-life of 90% residual potency)” value in data set [1] was “at least 58 days”.
